Values after ≈ are worked out from the molar mass of the structure shown. Values joined by “and” are separate entries in the source; they are usually repeats but may differ in a detail not shown here. Identical values can stand only once. Like-named read-outs stand apart in the source and are kept apart here.
Legend:
L. donovani = L. donovani infection in hamsters (Example 9); assay type: in vivo, syrian golden hamsters (Mesocricetus auratus); conditions: i.p. 10 mg per kg two times per day for 7 days
L. major promastigotes = L. major promastigotes from 4-days cultures, 3H-thymidine uptake (Examples 5, 14); assay type: cell-based, Leishmania major; conditions: Leishmania major, Table 14.1, read-out: percentage inhibition of promastigotes (upper figure)
Summary of the method: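 Promastigotes harvested on day 4 of culture were exposed to compound, then pulsed with 100 μC 3H-thymidine for a further 18 h. Cells were collected on filter paper, washed, and incorporated radioactivity counted by scintillation.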

L. major amastigotes = L. major amastigotes in human macrophages, Giemsa counting (Example 6); assay type: cell-based, Leishmania major
Protocol: Macrophage culture. The method used in this study was a modification of the one described by Berman et al. (1979). Human peripheral blood monocytes were obtained by Ficoll-Hypaque fractionation of blood from the Blood Bank, Rigshospitalet, Copenhagen, Denmark. Washed cells were suspended in medium RPMI-199 containing penicillin (50 U/ml), and streptomycin (50 μg/ml), 25 mM Hepes, 4 mM L-glutamine, and 10% heat inactivated fetal calf serum (56° C., 30 min). One milliliter of suspension containing 1×10^6 mononuclear cells was added to each well (16 mm in diameter, with one piece of cover glass in 12 mm diameter) of 24 wells of plastic culture trays (Nunc, Denmark). After 4 h and again after 3 days of incubation at 37° C. in 5% CO2-95% air, old medium was removed and washed with warm fresh medium three times, and then replaced with warm fresh medium.
Infection of macrophages with L. major promastigotes. After 6 days incubation the old medium was removed, and one milliliter of 1×10^7 4 days culture of L. major promastigotes (same promastigotes culture as in Example 4) was added to each well. After 24 h infection, macrophage cultures were washed three times with warm fresh medium and replenished with warm fresh medium with different concentrations of licochalcone A or medium alone. The medium was changed every 3 days. After infection, day 3 and day 6 a certain number of macrophage cultures were fixed with absolute methanol, stained with 5% Giemsa stain for 10 min, and examined by light microscopy (×1,000). The percentage of macrophages that contained amastigotes and the number of amastigotes present per infected macrophage were determined in replicate cultures by counting 200 cells per well.

[1] = system: L. donovani promastigotes; experiment: In vitro growth of L. donovani promastigotes, 3H-thymidine uptake (Example 4); assay type: cell-based; conditions: Leishmania donovani; for inhibition at 1 µg/mL: 1 μg/ml; for inhibition at 2 µg/mL: 2 μg/ml; for inhibition at 5 µg/mL: 5 μg/ml; for inhibition at 10 µg/mL: 10 μg/ml; for inhibition at 20 µg/mL: 20 μg/ml
L. gormanii = experiment: microbe, parasite or virus in culture; assay type: cell-based; conditions: Fluoribacter gormanii
Bacillus subtilis = experiment: MIC, macrodilution (Example 17); assay type: cell-based; conditions: 1 strain
[2] = system: Staphylococcus aureus ATCC 25923; experiment: MIC on control strain, aerobic and microaerophilic (Example 18); assay type: cell-based; conditions: ATCC25923, 2 h, 2 hours incubation
Protocol: Staphylococcus aureus ATCC 25923 was used as control strain. The Helicobacter pylori strains were subcultured on chocolate agar plates with cysteine in a microaerophilic atmosphere at 37° C. for 72 hours and kept frozen at −80° C. until assayed.
The MIC rows were incubated under microaerophilic conditions for two hours. Hereafter aliquots of 10 μl were taken from all dilution steps and plated on chocolate agar with cysteine and incubated in a microaerophilic atmosphere for 72 hours at 37° C. The control strain Staphylococcus aureus was incubated both aerobically and microaerophilically at 37° C. for 24 hours. All plates were read by the Karber method.

[3] = system: L. major WHO pentostam resistant strain promastigotes; experiment: Pentostam resistant L. major promastigotes, 3H-thymidine uptake (Example 10); conditions: 5 μg/ml
[4] = Reaction with N-acetyl-L-cysteine, HPLC (Example 26); assay type: physicochemical; conditions: 7 days
Protocol: Formation of N-acetyl-L-cysteine conjugates of licochalcone A. A solution of 1.5 mg of licochalcone A and 100 mg of N-acetyl-L-cysteine in acetonitrile0.13 M aqueous potassium phosphate buffer solution pH 7.5 (1:3) was left for 7 days at ambient temperature protected from light.

[5] = system: Non-haemolytic streptacocci; experiment: MIC, macrodilution (Example 17); assay type: cell-based, Non-haemolytic streptococci; conditions: 1 strain
[6] = system: P. yoelii (strain not characterized); experiment: P. yoelii (strain not characterized) infection in mice, parasitemia, drug i.p. (Example 16); assay type: in vivo, BALB/c mice; conditions: 5 mg per kg twice daily for 8 days
[7] = read-out: percentage inhibition of 3H-thymidine uptake (mean ± SEM), 3-day culture
[8] = read-out: percentage inhibition of 3H-thymidine uptake (mean ± SEM), 6-day culture

C=CC(C)(C)c1cc(/C=C/C(=O)c2ccc(O)cc2)c(OC)cc1O [Licochalcone A, licochalcone A]
parasite load in the liver and the spleen (L. donovani): reduced to almost undetectable levels | inhibition at 0.5 µg/mL (L. major promastigotes; 0.5 μg/ml): 12% | inhibition at 1 µg/mL (L. major promastigotes; 1 μg/ml): 25% | inhibition at 5 µg/mL (L. major promastigotes; 5 μg/ml): 64% | inhibition at 10 µg/mL (L. major promastigotes; 10 μg/ml): 92% | number of amastigotes/100 macrophages (L. major amastigotes; 1 μg/ml, 3-day): 54 | number of infected macrophages/100 macrophages (L. major amastigotes; 1 μg/ml, 3-day): 43 | number of amastigotes/100 macrophages (L. major amastigotes; 1 μg/ml, 6-day): 45/45/100 | number of infected macrophages/100 macrophages (L. major amastigotes; 1 μg/ml, 6-day): 45/45/100 | number of amastigotes/100 macrophages (L. major amastigotes; 5 μg/ml, 3-day): 18 | number of infected macrophages/100 macrophages (L. major amastigotes; 5 μg/ml, 3-day): 7 | number of amastigotes/100 macrophages (L. major amastigotes; 5 μg/ml, 6-day): 11 | number of infected macrophages/100 macrophages (L. major amastigotes; 5 μg/ml, 6-day): 5 | number of amastigotes/100 macrophages (L. major amastigotes; 10 μg/ml, 3-day): 10 | number of infected macrophages/100 macrophages (L. major amastigotes; 10 μg/ml, 3-day): 5 | number of amastigotes/100 macrophages (L. major amastigotes; 10 μg/ml, 6-day): 6 | number of infected macrophages/100 macrophages (L. major amastigotes; 10 μg/ml, 6-day): 4 | inhibition at 1 µg/mL [1, 7]: 15.2 ± 14.5% | inhibition at 2 µg/mL [1, 7]: 23.5 ± 16.4% | inhibition at 5 µg/mL [1, 7]: 53.7 ± 14% | inhibition at 10 µg/mL [1, 7]: 81.5 ± 8% | inhibition at 20 µg/mL [1, 7]: 96.7 ± 0.8% | inhibition at 1 µg/mL [1, 8]: 30.4 ± 23.8% | inhibition at 2 µg/mL [1, 8]: 42.2 ± 16.6% | inhibition at 5 µg/mL [1, 8]: 70.1 ± 12.4% | inhibition at 10 µg/mL [1, 8]: 91.9 ± 3.1% | inhibition at 20 µg/mL [1, 8]: 98.3 ± 0.8% | MIC (L. gormanii): 500 µg/mL (≈ 1480 µM) | MIC (Bacillus subtilis): 4 µg/mL (≈ 11.8 µM) | MIC ([2]; microaerophilic conditions): > 500 µg/mL | MIC ([2]; normal atmosphere): 4 µg/mL (≈ 11.8 µM) | growth of pentostam resistant parasites [3]: completely inhibited the growth | stability in buffer without N-acetyl-L-cysteine [4]: No similar decrease | reaction with N-acetyl-L-cysteine ([4]; acetonitrile-phosphate buffer pH 7.5 (1:3), ambient temperature): decreased amounts of licochalcone A and appearance of two new peaks | MIC [5]: 4 µg/mL (≈ 11.8 µM) | Parasitemia, mean of 3 mice ([6]; D + 1): 0.03% | Parasitemia, single mice ([6]; D + 1): 0.05% and 0.03% and 0.02% | Parasitemia, mean of 3 mice ([6]; D + 2): 0.2% | Parasitemia, single mice ([6]; D + 2): 0.5% and 0.05% and 0.01% | Parasitemia, mean of 3 mice ([6]; D + 3): 1.0% | Parasitemia, single mice ([6]; D + 3): 2.0% and 0.5% | Parasitemia, mean of 3 mice ([6]; D + 4): 2.5% | Parasitemia, single mice ([6]; D + 4): 4.0% and 1.5% and 2.0% | Parasitemia, mean of 3 mice ([6]; D + 5): 2.5% | Parasitemia, single mice ([6]; D + 5): 4.0% and 1.5% and 2.0% | Parasitemia, mean of 3 mice ([6]; D + 6): 2.3% | Parasitemia, single mice ([6]; D + 6): 4.5% and 2.0% and 1.0% | Parasitemia, mean of 3 mice ([6]; D + 7): 2.2% | Parasitemia, single mice ([6]; D + 7): 4.0% and 1.5% and 1.0% | Parasitemia, mean of 3 mice ([6]; D + 8): 2.3% | Parasitemia, single mice ([6]; D + 8): 4.0% and 1.5% | Parasitemia, mean of 3 mice ([6]; D + 9): 2.2% | Parasitemia, single mice ([6]; D + 9): 4.0% and 1.0% and 1.5% | Parasitemia, mean of 3 mice ([6]; D + 11): 1.7% | Parasitemia, single mice ([6]; D + 11): 2.0% and 1.0% | Parasitemia, mean of 3 mice ([6]; D + 12): 1.7% | Parasitemia, single mice ([6]; D + 12): 2.0% and 1.0% | Parasitemia, mean of 3 mice ([6]; D + 14): 0.7% | Parasitemia, single mice ([6]; D + 14): 1.0% and 0.0% | Parasitemia, mean of 3 mice ([6]; D + 16): 0.03% | Parasitemia, single mice ([6]; D + 16): 0.0% and 0.1% | Parasitemia, mean of 3 mice ([6]; D + 18): 0.0% | Parasitemia, single mice ([6]; D + 18): 0.0% | Parasitemia, mean of 3 mice ([6]; D + 20): 0.0% | Parasitemia, single mice ([6]; D + 20): 0.0% | Parasitemia, mean of 3 mice ([6]; D + 21): 0.0% | Parasitemia, single mice ([6]; D + 21): 0.0%
